pIC50: −log10 of the molar value.
Target: T1, Mas-related G-protein coupled receptor member X2 (Homo sapiens, UniProt Q96LB1)
T1 sequence (Q96LB1 whole entry): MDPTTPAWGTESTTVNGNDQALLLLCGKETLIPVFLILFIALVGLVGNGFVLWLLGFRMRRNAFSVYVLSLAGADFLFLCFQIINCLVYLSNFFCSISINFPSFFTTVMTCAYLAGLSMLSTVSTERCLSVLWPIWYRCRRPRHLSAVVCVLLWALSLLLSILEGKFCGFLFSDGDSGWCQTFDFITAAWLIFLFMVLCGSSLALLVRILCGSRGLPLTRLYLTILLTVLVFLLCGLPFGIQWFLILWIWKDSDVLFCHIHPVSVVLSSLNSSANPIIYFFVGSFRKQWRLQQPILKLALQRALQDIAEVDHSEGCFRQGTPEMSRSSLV
Assay: MRGPRX2 Activity Assay
Method: FlpIn TRex-MRGPRX2-HEK293 cells (herein TRex-MRPGRX2-HEK) stably transfected to express human MRGPRX2 were maintained at 37 °C with 5% CO2 and grown in DMEM supplemented with 10% FBS, 1% L-Glutamate, 1% penicillin/streptomycin, 100ug/mL Hygromycin B, and 15 µg/mL Blasticidin. GOI (MRGPRX2) expression was induced with 100ng/mL of Doxycycline 18-24 hours prior to experiment, in flask. On the day of experiment, cells were lifted with TripLE Express and seeded in 384-well white walled opaque bottomed, assay plates, at 8,000 cells per well in 5 µL freshly made assay buffer (HBSS, 20 mM HEPES, 0.1% BSA and 10 mM LiCl). Compounds solubilized in 100% DMSO at 30 mM were serially diluted (1:4) first in 100% DMSO, and an intermediate plate of assay buffer was used to establish a final top concentration of 30 µM (in assay plate). Final DMSO concentration was kept constant at 1% across assay plates. Cortistatin-14, at 30 mM stock concentration was solubilized in HBSS + 0.1% BSA, stored at -20°C in 5 µL aliquots and discarded after one freeze-thaw cycle. […] Antagonist equilibrium was established with 30 minutes preincubation, followed by no wash, direct addition, and stimulation of agonist for 1 hour at 37 °C / 5% CO2. IP-1 standards and HTRF detection reagents were added according to the IP-one Gq kit protocol purchased from CisBio (part number 62IPAPEJ). The plate was read on an EnVision XCite plate reader. The HTRF ratio was then calculated from raw data (channel1/channel2 ×10,000) and analyzed using either GraphPad Prism or a custom Python script to calculate IC50 using Log[Antagonist] vs. response (4 parameter) nonlinear regression.

Row | Structure (SMILES) | pIC50
1 | C[C@@H](C(=O)Nc1nc2cc3c(cc2s1)OC(F)(F)O3)N1CCO[C@H](c2ccc(=O)[nH]c2)C1 [WO2025064535, Compound 4] | < 4.52
2 | C[C@@H](C(=O)Nc1nc2cc3c(cc2s1)OC(F)(F)O3)N1CCC[C@@H](CO)C1 [WO2025064535, Compound 7] | 5.95
3 | C[C@@H](C(=O)Nc1cc2cc3c(cc2s1)OC(F)(F)O3)N1CCC(F)(F)[C@@H](c2c[nH]c(=O)c([C@H](N)C(F)(F)F)c2)C1 [WO2025064535, Compound 14] | 4.89
4 | C[C@@H](C(=O)Nc1nc2cc3c(cc2s1)OC(F)(F)O3)N1CCC(F)(F)[C@H](c2c[nH]c(=O)c([C@H](N)C(F)F)c2)C1 [WO2025064535, Compound 23] | 5.05
5 | C[C@@H](C(=O)Nc1nc2cc3c(cc2s1)OC(F)(F)O3)N1CCC(F)(F)[C@H](c2c[nH]c(=O)c([C@@H](N)C(F)F)c2)C1 [WO2025064535, Compound 24] | < 4.52
6 | C[C@@H](C(=O)Nc1nc2cc3c(cc2s1)OCCO3)N1CCC(F)(F)[C@H](c2ccc(=O)[nH]c2)C1 [WO2025064535, Compound 30] | 5.97
7 | C[C@@H](C(=O)Nc1nc2cc3c(cc2s1)OC(F)(F)O3)N1CCC(F)(F)[C@@H](c2ccc(=O)[nH]c2)C1 [WO2025064535, Compound 31] | < 4.52
8 | C[C@@H](C(=O)Nc1nc2cc3c(cc2s1)OC(F)(F)O3)N1CCC(F)(F)[C@H](c2c[nH]c(=O)cn2)C1 [WO2025064535, Compound 35] | 5.99
9 | C[C@@H](C(=O)Nc1nc2cc3c(cc2s1)OC(F)(F)O3)N1CC[C@@H](F)[C@@H](c2cc[n+]([O-])cc2)C1 [WO2025064535, Compound 36] | < 4.52
10 | C[C@@H](C(=O)Nc1nc2cc3c(cc2s1)OC(F)(F)O3)N1CC[C@@H](F)[C@H](c2cc[n+]([O-])cc2)C1 [WO2025064535, Compound 37] | < 4.52
11 | C[C@@H](C(=O)Nc1nc2cc3c(cc2s1)OCCO3)N1CCC(F)(F)[C@@H](c2c[nH]c(=O)cn2)C1 [WO2025064535, Compound 40] | 6.11
12 | C[C@@H](C(=O)Nc1nc2cc3c(cc2s1)OC(F)(F)O3)N1CCC(F)(F)[C@@H](c2c[nH]c(=O)c([C@@H](O)CO)c2)C1 [WO2025064535, Compound 42] | < 4.52
13 | C[C@@H](C(=O)Nc1nc2cc3c(cc2s1)OC(F)(F)O3)N1CCC(F)(F)[C@@H](c2c[nH]c(=O)c([C@H](O)CO)c2)C1 [WO2025064535, Compound 44] | < 4.52
14 | C[C@@H](C(=O)Nc1nc2cc3c(cc2s1)OC(F)(F)O3)N1CCC(F)(F)[C@@H](c2cc[n+]([O-])c([C@@H](O)CO)c2)C1 [WO2025064535, Compound 51] | < 4.52
15 | C[C@@H](C(=O)Nc1nc2cc3c(cc2s1)OC(F)(F)O3)N1CCC(F)(F)[C@H](c2cc[n+]([O-])c([C@@H](O)CO)c2)C1 [WO2025064535, Compound 52] | < 4.52
16 | C[C@@H](C(=O)Nc1nc2cc3c(cc2s1)OC(F)(F)O3)N1CCC(F)(F)[C@@H](n2ccc(=O)[nH]c2=O)C1 [WO2025064535, Compound 62] | < 4.52
17 | C[C@@H](C(=O)Nc1nc2cc3c(cc2s1)OC(F)(F)O3)N1CCC(F)(F)[C@H](n2ccc(=O)[nH]c2=O)C1 [WO2025064535, Compound 63] | 6.20
18 | C[C@@H](C(=O)Nc1nc2cc3c(cc2s1)OC(F)(F)O3)N1CCC(F)(F)[C@@H](c2cc[n+]([O-])c(CN)c2)C1 [WO2025064535, Compound 64] | < 4.52
19 | C[C@@H](C(=O)Nc1nc2cc3c(cc2s1)OC(F)(F)O3)N1CCC(F)(F)[C@@H](c2c[nH]c(=O)c(CN3CCOCC3)c2)C1 [WO2025064535, Compound 66] | < 4.52
20 | C[C@@H](C(=O)Nc1nc2cc3c(cc2s1)OC(F)(F)O3)N1CCC(F)(F)[C@@H](c2c[nH]c(=O)c(CN3CCC(F)(F)CC3)c2)C1 [WO2025064535, Compound 68] | < 4.52
21 | C[C@@H](C(=O)Nc1nc2cc3c(cc2s1)OC(F)(F)O3)N1CCC(F)(F)[C@@H](c2c[nH]c(=O)c(CN)c2)C1 [WO2025064535, Compound 82] | 5.68
22 | C[C@H](C(=O)Nc1nc2cc3c(cc2s1)OC(F)(F)O3)N1CCC(F)(F)[C@H](c2c[nH]c(=O)c(CN)c2)C1 [WO2025064535, Compound 83] | < 4.52
23 | C[C@H](C(=O)Nc1nc2cc3c(cc2s1)OC(F)(F)O3)N1CCC(F)(F)[C@@H](c2c[nH]c(=O)c(CN)c2)C1 [WO2025064535, Compound 84] | 5.94
24 | CNCc1cc([C@H]2CN([C@@H](C)C(=O)Nc3nc4cc5c(cc4s3)OC(F)(F)O5)CCC2(F)F)cc[n+]1[O-] [WO2025064535, Compound 101] | 5.46
25 | C[C@@H](C(=O)Nc1nc2cc3c(cc2s1)OC(F)(F)O3)N1CCC(F)(F)[C@H](c2ncn[nH]2)C1 [WO2025064535, Compound 105] | 6.29
26 | C[C@@H](C(=O)Nc1nc2cc3c(cc2s1)CCC3)N1CCC(F)(F)[C@@H](c2c[nH]c(=O)c(CO)c2)C1 [WO2025064535, Compound 106] | < 4.52

Now those with a higher pIC50, led by results:

Row | pIC50 | Structure (SMILES)
27 | 6.52 | C[C@@H](C(=O)Nc1nc2cc3c(cc2s1)OC(F)(F)O3)N1CCC(F)(F)[C@H](c2c[nH]c(=O)c(CN3CCOCC3)c2)C1 [WO2025064535, Compound 67]
28 | 6.53 | C[C@@H](C(=O)Nc1nc2cc3c(cc2s1)CCC3)N1CCC(F)(F)[C@@H](c2ccc(=O)[nH]c2)C1 [WO2025064535, Compound 27]
29 | 6.65 | C[C@@H](C(=O)Nc1nc2cc3c(cc2s1)OC(F)(F)O3)N1CC[C@H](F)[C@H](c2cc[n+]([O-])cc2)C1 [WO2025064535, Compound 39]
30 | 6.65 | C[C@@H](C(=O)Nc1nc2cc3c(cc2s1)OC(F)(F)O3)N1CCC[C@H](c2cc[n+]([O-])cc2)C1 [WO2025064535, Compound 50]
31 | 6.71 | C[C@@H](C(=O)Nc1nc2cc3c(cc2s1)OCO3)N1CCC(F)(F)[C@@H](c2cc[n+]([O-])cc2)C1 [WO2025064535, Compound 80]
32 | 6.77 | C[C@@H](C(=O)Nc1nc2cc3c(cc2s1)OC(F)(F)O3)N1CCC(F)(F)[C@H](c2c[nH]c(=O)c(CN3CCC(F)(F)CC3)c2)C1 [WO2025064535, Compound 69]
33 | 7.07 | C[C@@H](C(=O)Nc1nc2cc3c(cc2s1)CCC3)N1CCC(F)(F)CC1 [WO2025064535, Compound 18]
34 | 7.31 | C[C@@H](C(=O)Nc1nc2cc3c(cc2s1)OC(F)(F)O3)N1CCO[C@@H](c2ccc(=O)[nH]c2)C1 [WO2025064535, Compound 3]
35 | 7.49 | C[C@@H](C(=O)Nc1nc2cc3c(cc2s1)OC(F)(F)O3)N1CCC(F)(F)[C@H](c2cc[n+]([O-])c(CN)c2)C1 [WO2025064535, Compound 65]
36 | 7.51 | C[C@@H](C(=O)Nc1nc2cc3c(cc2s1)OC(F)(F)O3)N1CCC(F)(F)[C@@H](c2ncn[nH]2)C1 [WO2025064535, Compound 104]
37 | 7.52 | C[C@@H](C(=O)Nc1nc2cc3c(cc2s1)OC(F)(F)O3)N1CCC(F)(F)[C@@H](c2cc[n+]([O-])c([C@H](O)CO)c2)C1 [WO2025064535, Compound 53]
38 | 7.66 | C[C@@H](C(=O)Nc1nc2cc3c(cc2s1)OC(F)(F)O3)N1CCC(F)(F)[C@H](c2c[nH]c(=O)c([C@H](O)CO)c2)C1 [WO2025064535, Compound 45]
39 | 7.74 | C[C@@H](C(=O)Nc1nc2cc3c(cc2s1)OC(F)(F)O3)N1CCC(F)(F)[C@@H](c2c[nH]c(=O)c([C@H](N)C(F)F)c2)C1 [WO2025064535, Compound 21]
40 | 7.77 | C[C@@H](C(=O)Nc1nc2cc3c(cc2s1)OC(F)(F)O3)N1CCC(F)(F)[C@@H](c2c[nH]c(=O)c([C@@H](N)C(F)F)c2)C1 [WO2025064535, Compound 22]
